In US20050079566A1, “Analytical methods for determination of proteolytic cleavage at specific sites” (priority 2003, published 2005):
No end group written: not given here. *: point of attachment. Biotin = O=C1N[C@H]2[C@H](CS[C@H]2CCCCC(=O)*)N1

Columns and labels:
HYB 100-01-POD = assay: ELISA: effect of peptide length and N-terminus on the signal with TAL reagent and HYB 100-01-POD; type: binding; settings: Example 6, FIG. 6, activated TAL, HYB 100-01-POD 0.5 μg/ml; for signal: peptide coupled to Immobilizer plate
Description: PBS (100 μl) was added to all wells of an Immobilizer 96-well microtiter plate (Nunc). The relevant peptides (SEQ ID NO:11, 13, 14, 15 and 16) were all diluted to 50 μg/ml in PBS and 100 μl of individual solutions added to the first well of the respective row. […] The peptides were allowed to couple to the plate for two hours at 20-25° C. Residual coupling activity was reduced by the addition of 50 μl of 50 mM Tris Buffer, pH 8.0, for 30 minutes. Each well was then washed with 100 μl of PBS. To 0.5 ml of TAL reagent (Zhanjiang A&C Biologicals Ltd) was added 15 EU of Control Standard Endotoxin (CSE) followed by 12 ml of endotoxin-free PBS, and 100 μl of this solution was then added to each well. The plate was then incubated at 37° C. for 45 minutes.

antisera = assay: Inhibition ELISA: cross-reactivity of antisera with peptides of different length; type: binding, mice; settings: antisera against octapeptide QESGVSGR
Description: Immunization of mice: Separate groups of BCG-vaccinated mice were immunized with six doses (10 μg carrier) of each of these conjugates at 14-day intervals and their sera tested by ELISA in wells coated with the corresponding peptide coupled at molar ratios of 5:1 or 2.5:1 to the opposite carrier at a coating concentration of 10 μg/ml (with respect to carrier) in 0.05 M sodium carbonate buffer, pH 9.6.

TAL reagent = settings: Example 4, FIG. 4; peptide at 40 ng/ml, detection with HYB 100-01-POD
Description: Under precautions to keep endotoxin contamination to a minimum, a solution of peptide (SEQ ID NO:12) at a concentration of 40 ng/ml in LAL reagent water (LRW) (Cambrex) was added to all wells of a streptavidin Immobilizer 96-well microtiter plate (Nunc) at 100 μl per well. After incubation for 10 minutes at 20-25° C., 100 μl of Control Standard Endotoxin (CSE) solution of 10 EU/ml were added to the first well of the appropriate rows. Serial doubling dilutions were then carried out across the plate leaving the last well as a blank without endotoxin. A 0.5-ml vial of TAL reagent (Zhanjiang A&C Biologicals Ltd) was reconstituted in 0.5 ml of LRW. This was diluted 12-, 15-, 30- and 40-fold in endotoxin-free 50 mM Tris buffer (Cambrex), whereupon 100 μl of a given dilution were added to each well of the corresponding row. The microtiter plate was incubated at 37° C. for 45 minutes. The reaction was stopped by quickly emptying the wells followed by 3×2 minute washes with stop buffer (25% isopropanol v/v in 100 mM glycine-HCl, pH 2.4). The plate was then equilibrated with 2×10-30-second washes with wash buffer. HYB 100-01-POD was diluted to 0.5 μg/ml in dilution buffer and added to each well at 100 μl/well. […] The color reaction was stopped by adding 100 μl of 1 M sulfuric acid to each well and the absorbance measured at 450 nm in a microplate reader, subtracting the absorbance at 620 nm.

Q: Which results are given for “Biocytin-VQAITDKDEISGR [Peptide SEQ ID NO:11]”?
A: coating concentration at which the maximal (or similar) signal is reached (HYB 100-01-POD): about 0.05 μg/ml; signal (HYB 100-01-POD): much stronger signal

Q: For ITDKDEISGR [Peptide SEQ ID NO:15], which “coating concentration at which the maximal (or similar) signal is reached” value (HYB 100-01-POD) is on record?
A: 12.5 to 25 µg/mL

Q: Which cross-reactivity (antisera; result in words) does the source give for GVSGR [pentapeptide] here?
A: little or no cross-reactivity

Q: With “Biotin-VQAITDKDEISGRGF [Peptide SEQ ID NO:12]” as the substance, how does the “cleavage by endotoxin-activated TAL” value (TAL reagent) read?
A: site-specific cleavage

Q: “Biocytin-VQAITDKDEISGRGF [Peptide SEQ ID NO:16]” was tested. Which signal (HYB 100-01-POD) did it give?
A: slightly lower signal

Q: How did the cross-reactivity (antisera) turn out when AQESGVSGR [nonapeptide] was run?
A: > 100%

Q: DKDEISGR [Peptide SEQ ID NO:14] was tested. Which signal (HYB 100-01-POD) did it give?
A: almost totally lost
